Data on seven compounds can be found in ChEMBL document CHEMBL1909046, “DrugMatrix in vitro pharmacology data”.

The target in one data set is Cannabinoid receptor 1 (Homo sapiens, UniProt P21554). Format: cell membranes, Membrane. The settings on record: chem-1. Further: in other assays of this panel Not Active means under 50% inhibition at 10 µM.
Data set [1] addresses T1, Cysteinyl leukotriene receptor 1 (Homo sapiens, UniProt Q9Y271).
T1 sequence (Q9Y271 whole entry): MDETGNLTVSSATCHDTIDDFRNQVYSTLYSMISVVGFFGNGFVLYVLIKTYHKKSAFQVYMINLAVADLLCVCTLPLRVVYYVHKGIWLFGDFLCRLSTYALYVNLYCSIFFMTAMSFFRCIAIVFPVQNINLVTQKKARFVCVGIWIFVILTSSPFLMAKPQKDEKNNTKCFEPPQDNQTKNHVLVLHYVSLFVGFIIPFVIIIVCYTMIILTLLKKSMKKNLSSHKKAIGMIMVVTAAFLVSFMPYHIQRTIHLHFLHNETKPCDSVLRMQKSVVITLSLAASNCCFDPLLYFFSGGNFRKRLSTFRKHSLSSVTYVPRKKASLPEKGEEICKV
Format: cell membranes, CHO-K1, Membrane. The settings on record: cho-k1.

Another data set has as its target T2, Substance-K receptor (Homo sapiens, UniProt P21452). Further: in other assays of this panel Not Active means under 50% inhibition at 10 µM.
T2 sequence (P21452 whole entry): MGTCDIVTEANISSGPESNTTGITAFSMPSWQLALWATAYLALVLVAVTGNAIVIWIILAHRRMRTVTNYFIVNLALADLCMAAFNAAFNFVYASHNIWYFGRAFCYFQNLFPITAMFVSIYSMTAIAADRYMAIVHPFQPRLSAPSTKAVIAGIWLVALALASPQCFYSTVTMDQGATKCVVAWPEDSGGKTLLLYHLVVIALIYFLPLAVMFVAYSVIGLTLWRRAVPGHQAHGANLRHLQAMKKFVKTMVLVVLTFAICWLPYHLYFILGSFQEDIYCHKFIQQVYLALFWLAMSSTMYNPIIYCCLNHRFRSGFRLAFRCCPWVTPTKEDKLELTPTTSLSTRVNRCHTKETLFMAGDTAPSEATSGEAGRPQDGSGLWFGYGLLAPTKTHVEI
In kind it is cell membranes, CHO, Membrane. The settings on record: for Ki: read-out: Ki.

Data set [2] addresses Vascular endothelial growth factor receptor 1 (Homo sapiens, UniProt P17948). In kind it is cell-based. As to conditions: huvec.
The target of data set [3] is C-C chemokine receptor type 5 (Homo sapiens, UniProt P51681). In kind it is cell membranes, Membrane. As to conditions: hek293. Further: in other assays of this panel Not Active means under 50% inhibition at 10 µM.
Chain of C-C chemokine receptor type 5 (P51681 whole entry): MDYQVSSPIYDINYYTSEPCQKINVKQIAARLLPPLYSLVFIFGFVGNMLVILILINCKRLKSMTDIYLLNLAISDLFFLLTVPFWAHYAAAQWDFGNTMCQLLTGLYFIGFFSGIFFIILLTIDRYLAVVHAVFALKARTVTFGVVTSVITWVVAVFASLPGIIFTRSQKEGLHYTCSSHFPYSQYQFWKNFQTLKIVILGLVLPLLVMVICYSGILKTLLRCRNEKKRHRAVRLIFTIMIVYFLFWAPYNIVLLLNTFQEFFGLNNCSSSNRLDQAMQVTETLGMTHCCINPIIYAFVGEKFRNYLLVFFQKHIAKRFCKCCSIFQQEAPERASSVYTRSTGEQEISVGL
In data set [4] the target is Platelet-activating factor receptor (Homo sapiens, UniProt P25105). In words: biochemical. Format: tissue-based. The settings on record: platelet. Further: in other assays of this panel Not Active means under 50% inhibition at 10 µM.
Chain of Platelet-activating factor receptor (P25105 whole entry): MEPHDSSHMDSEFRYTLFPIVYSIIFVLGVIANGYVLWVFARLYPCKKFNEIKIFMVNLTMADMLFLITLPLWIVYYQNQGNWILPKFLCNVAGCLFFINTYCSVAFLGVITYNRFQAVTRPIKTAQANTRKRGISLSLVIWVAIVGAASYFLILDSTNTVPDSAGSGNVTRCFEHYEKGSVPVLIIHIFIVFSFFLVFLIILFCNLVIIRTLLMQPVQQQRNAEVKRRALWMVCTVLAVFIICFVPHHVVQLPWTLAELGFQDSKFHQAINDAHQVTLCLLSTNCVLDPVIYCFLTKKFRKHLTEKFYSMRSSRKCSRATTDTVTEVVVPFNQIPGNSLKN
The target of another data set is Nitric oxide synthase 1 (Rattus norvegicus, UniProt P29476). In kind it is tissue-based, Cerebellum. Further: in other assays of this panel Not Active means under 50% inhibition at 10 µM.
Chain of Nitric oxide synthase 1 (P29476 whole entry): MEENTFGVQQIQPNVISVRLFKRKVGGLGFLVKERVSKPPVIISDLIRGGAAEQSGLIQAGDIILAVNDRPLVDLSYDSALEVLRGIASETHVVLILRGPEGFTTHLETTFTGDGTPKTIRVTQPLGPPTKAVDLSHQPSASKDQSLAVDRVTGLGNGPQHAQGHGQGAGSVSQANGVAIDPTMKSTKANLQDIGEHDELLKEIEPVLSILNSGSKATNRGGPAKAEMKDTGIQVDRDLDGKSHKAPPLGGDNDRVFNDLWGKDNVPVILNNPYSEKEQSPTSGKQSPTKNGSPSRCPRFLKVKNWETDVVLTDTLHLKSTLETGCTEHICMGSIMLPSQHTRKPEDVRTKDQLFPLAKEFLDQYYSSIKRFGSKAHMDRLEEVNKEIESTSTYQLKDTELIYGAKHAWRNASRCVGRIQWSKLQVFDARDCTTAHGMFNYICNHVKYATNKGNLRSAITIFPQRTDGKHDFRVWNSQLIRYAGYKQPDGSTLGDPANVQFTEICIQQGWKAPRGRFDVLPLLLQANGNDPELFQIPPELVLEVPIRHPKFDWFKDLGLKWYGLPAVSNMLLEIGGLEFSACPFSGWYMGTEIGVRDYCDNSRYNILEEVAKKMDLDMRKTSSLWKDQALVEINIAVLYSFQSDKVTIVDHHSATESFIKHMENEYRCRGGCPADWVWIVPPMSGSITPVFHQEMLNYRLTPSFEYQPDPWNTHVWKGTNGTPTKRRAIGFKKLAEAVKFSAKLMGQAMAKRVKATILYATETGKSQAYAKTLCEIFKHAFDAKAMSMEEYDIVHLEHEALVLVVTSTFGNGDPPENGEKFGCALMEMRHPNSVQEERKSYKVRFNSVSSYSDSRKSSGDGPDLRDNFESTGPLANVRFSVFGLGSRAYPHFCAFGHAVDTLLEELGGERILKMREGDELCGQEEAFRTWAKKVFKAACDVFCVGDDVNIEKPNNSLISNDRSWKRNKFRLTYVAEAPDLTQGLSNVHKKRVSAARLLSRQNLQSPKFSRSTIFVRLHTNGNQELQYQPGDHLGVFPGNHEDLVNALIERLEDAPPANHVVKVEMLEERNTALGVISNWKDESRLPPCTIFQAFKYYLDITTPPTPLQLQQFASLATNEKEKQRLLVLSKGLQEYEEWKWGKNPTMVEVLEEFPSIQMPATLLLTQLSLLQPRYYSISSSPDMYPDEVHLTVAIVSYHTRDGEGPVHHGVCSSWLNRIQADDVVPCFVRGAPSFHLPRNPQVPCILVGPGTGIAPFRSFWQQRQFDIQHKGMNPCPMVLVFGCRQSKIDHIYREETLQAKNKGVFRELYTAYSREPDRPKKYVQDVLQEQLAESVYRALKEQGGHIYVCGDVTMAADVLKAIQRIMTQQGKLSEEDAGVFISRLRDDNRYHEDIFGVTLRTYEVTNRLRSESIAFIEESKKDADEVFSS
Data set [5] addresses Mitogen-activated protein kinase 3 (Homo sapiens, UniProt P27361). The experiment in a line: DRUGMATRIX: Protein Serine/Threonine Kinase, ERK1 enzyme inhibition (substrate: Myelin Basic Protein). Also on record: species or system Escherichia coli. As to conditions: Not Active = under 50% inhibition at 10 µM.
Data set [6] deals with T3, Type-2 angiotensin II receptor (Homo sapiens, UniProt P50052).
T3 sequence (P50052 whole entry): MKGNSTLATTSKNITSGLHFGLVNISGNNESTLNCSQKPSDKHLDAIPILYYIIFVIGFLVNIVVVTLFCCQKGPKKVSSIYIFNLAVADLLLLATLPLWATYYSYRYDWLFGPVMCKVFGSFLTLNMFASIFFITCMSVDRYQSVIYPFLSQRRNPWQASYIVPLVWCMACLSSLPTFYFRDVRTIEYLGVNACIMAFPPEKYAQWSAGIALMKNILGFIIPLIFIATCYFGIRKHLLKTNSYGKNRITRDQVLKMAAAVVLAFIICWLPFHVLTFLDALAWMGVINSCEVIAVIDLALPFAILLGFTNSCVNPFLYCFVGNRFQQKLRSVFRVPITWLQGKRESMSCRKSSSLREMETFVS
Format: cell-based. The settings on record: cho-k1.

The next data set deals with Vasopressin V1a receptor (Homo sapiens, UniProt P37288). Format: cell membranes, Membrane. The settings on record: hek293.
A further data set deals with Cytochrome P450 2E1 (Homo sapiens, UniProt P05181). The settings on record: bti-tn-5b1-4.
Chain of Cytochrome P450 2E1 (P05181 whole entry): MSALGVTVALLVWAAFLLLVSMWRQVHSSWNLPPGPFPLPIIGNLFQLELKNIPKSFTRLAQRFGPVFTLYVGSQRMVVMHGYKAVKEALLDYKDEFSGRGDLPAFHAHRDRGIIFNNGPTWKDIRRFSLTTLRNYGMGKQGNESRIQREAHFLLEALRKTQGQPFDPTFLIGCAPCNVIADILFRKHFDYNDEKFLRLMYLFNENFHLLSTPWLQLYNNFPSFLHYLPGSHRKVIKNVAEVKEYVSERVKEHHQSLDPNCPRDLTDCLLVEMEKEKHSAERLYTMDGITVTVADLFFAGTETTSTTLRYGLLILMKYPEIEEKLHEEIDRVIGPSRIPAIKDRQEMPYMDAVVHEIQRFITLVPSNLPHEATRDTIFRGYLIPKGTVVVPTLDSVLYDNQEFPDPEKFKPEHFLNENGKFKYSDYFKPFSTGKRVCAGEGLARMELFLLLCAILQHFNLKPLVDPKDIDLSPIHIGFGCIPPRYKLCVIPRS
Another data set addresses T4, Adenosine receptor A3 (Homo sapiens, UniProt P0DMS8).
T4 sequence (P0DMS8 whole entry): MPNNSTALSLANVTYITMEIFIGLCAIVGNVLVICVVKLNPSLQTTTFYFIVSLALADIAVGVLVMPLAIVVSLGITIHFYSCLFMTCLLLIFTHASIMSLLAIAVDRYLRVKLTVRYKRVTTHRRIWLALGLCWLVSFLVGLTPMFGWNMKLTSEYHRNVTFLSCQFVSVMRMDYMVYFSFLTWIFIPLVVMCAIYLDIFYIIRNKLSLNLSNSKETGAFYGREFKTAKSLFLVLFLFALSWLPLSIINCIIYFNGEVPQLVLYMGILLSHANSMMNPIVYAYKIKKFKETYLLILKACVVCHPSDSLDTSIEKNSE
Format: cell membranes, CHO-K1, Membrane. The settings on record: cho-k1.

For another data set, the target named is T5, D(4) dopamine receptor (Homo sapiens, UniProt P21917).
T5 sequence (P21917 whole entry): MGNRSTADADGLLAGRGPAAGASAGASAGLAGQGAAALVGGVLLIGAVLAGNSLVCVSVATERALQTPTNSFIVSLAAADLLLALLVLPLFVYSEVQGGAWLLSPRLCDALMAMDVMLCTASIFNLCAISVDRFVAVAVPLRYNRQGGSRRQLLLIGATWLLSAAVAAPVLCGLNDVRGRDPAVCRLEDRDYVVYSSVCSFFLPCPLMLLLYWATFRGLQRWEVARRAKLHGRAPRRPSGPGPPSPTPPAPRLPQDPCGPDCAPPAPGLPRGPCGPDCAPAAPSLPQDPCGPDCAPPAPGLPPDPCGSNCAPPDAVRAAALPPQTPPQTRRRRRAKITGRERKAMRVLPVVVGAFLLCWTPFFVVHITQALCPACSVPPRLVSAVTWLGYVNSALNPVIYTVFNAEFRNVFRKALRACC
In words: DRUGMATRIX: Dopamine D4.2 radioligand binding (ligand: [3H] Spiperone). In kind it is cell membranes, CHO-K1, Membrane. As to conditions: Not Active = under 50% inhibition at 10 µM.

For the next data set, the target named is Histamine H2 receptor (Homo sapiens, UniProt P25021). In kind it is cell membranes, CHO-K1, Membrane. Further: in other assays of this panel Not Active means under 50% inhibition at 10 µM.
Chain of Histamine H2 receptor (P25021 whole entry): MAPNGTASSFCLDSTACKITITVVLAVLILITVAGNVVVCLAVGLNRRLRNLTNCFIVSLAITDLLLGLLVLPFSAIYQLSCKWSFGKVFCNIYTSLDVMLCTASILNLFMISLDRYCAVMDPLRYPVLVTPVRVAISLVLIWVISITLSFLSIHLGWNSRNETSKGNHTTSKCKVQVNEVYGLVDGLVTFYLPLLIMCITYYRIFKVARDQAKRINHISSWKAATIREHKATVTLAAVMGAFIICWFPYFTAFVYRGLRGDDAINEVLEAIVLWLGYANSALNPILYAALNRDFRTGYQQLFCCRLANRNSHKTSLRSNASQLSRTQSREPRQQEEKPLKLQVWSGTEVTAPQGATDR
Data set [7] in a line: DRUGMATRIX: Sodium/nucleoside co-transporter radioligand binding (ligand: nitrobenzylthioinosine). In kind it is cell membranes, Cavia porcellus, Dunkin-Hartley, Cerebral cortex, Membrane. As to conditions: Not Active = under 50% inhibition at 10 µM.
Data set [8] in a line: DRUGMATRIX: ATPase, Na+/K+ enzyme inhibition (substrate: ATP). Format: tissue-based, Sus scrofa, Heart. The settings on record: Not Active = under 50% inhibition at 10 µM.
A short description of data set [9]: DRUGMATRIX: Imidazoline I2, Central radioligand binding (ligand: [3H] Idazoxan). In kind it is cell membranes, Rattus norvegicus, Wistar, Cerebral cortex, Membrane. As to conditions: Not Active = under 50% inhibition at 10 µM.
Data set [10] can be described thus: DRUGMATRIX: GABAA, Muscimol, Central radioligand binding (ligand: [3H] Muscimol). Format: cell membranes, Rattus norvegicus, Wistar, Brain, Membrane. As to conditions: Not Active = under 50% inhibition at 10 µM.

Each structure is given as a SMILES string.

Chain of Vascular endothelial growth factor receptor 1 (P17948 whole entry): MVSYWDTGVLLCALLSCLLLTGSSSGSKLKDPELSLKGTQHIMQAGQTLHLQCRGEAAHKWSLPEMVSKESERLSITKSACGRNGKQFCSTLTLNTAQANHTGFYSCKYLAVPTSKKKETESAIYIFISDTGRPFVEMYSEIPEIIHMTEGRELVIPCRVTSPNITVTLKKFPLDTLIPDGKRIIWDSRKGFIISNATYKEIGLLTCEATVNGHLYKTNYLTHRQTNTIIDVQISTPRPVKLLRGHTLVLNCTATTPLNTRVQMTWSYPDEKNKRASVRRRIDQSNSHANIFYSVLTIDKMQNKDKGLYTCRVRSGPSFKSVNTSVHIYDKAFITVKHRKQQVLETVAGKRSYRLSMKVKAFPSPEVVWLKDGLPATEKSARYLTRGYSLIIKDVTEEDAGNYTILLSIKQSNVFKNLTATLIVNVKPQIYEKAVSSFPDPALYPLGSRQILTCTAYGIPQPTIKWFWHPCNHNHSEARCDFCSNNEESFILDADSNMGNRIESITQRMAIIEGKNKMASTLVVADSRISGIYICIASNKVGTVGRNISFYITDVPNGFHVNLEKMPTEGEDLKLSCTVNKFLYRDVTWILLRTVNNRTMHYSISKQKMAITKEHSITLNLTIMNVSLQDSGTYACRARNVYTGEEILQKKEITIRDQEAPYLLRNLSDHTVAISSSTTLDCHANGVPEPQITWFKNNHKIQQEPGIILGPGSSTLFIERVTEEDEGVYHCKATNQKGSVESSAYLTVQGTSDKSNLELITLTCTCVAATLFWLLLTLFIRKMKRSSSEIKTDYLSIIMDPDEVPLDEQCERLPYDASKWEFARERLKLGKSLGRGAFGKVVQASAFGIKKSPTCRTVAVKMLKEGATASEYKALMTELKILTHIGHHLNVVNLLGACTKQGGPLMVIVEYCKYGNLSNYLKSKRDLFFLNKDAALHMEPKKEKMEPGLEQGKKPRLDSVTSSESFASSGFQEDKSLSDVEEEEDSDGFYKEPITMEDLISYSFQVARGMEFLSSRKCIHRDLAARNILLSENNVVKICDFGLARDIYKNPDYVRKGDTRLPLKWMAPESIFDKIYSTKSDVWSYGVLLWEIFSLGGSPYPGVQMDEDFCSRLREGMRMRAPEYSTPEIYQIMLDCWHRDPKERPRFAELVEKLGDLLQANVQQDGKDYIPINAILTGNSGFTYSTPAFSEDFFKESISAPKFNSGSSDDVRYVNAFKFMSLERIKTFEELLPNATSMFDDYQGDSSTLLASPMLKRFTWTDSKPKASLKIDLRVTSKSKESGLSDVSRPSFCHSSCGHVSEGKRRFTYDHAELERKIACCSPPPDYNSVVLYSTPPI
Chain of Mitogen-activated protein kinase 3 (P27361 whole entry): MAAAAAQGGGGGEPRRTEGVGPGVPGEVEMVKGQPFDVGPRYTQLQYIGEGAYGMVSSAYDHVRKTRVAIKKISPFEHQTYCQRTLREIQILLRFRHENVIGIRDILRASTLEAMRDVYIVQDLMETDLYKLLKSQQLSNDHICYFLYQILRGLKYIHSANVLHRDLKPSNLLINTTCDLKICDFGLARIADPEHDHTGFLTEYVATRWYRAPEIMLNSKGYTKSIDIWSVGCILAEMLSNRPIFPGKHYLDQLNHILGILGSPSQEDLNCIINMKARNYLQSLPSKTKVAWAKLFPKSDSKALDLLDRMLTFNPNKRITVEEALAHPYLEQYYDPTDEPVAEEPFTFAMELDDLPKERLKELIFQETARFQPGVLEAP

What is called IC50 is the concentration needed to halve the response being measured. Broadly, the Ki is a measure of affinity in units of concentration, obtained from inhibition or displacement. For `COc1ccc(CCN2CCC(Nc3nc4ccccc4n3Cc3ccc(F)cc3)CC2)cc1` [ASTEMIZOLE], the IC50 result was “Not Active” against Cannabinoid receptor 1; “Not Active” in data set [1]; 2.99 µM at Substance-K receptor (read-out: IC50); “Not Active” in data set [2]; “Not Active” in data set [3]; “Not Active” in data set [4]. For the same compound, the IC50 result (on Nitric oxide synthase 1; in data set [5]; in [6]; against Vasopressin V1a receptor; at Cytochrome P450 2E1) was “Not Active” throughout. The Ki on Substance-K receptor is 0.995 µM; on Cytochrome P450 2E1, “Not Active”.
Turning to `CN(C)CCCN1c2ccccc2CCc2ccc(Cl)cc21` [CLOMIPRAMINE], the IC50 result (at Cannabinoid receptor 1; in [1]; against Substance-K receptor (cho); in [2]; in data set [3]; against Adenosine receptor A3) was “Not Active” each time. Further, the IC50 result in data set [4] is “Not Active”; on Nitric oxide synthase 1, “Not Active”; in data set [5], “Not Active”; in data set [6], “Not Active”; at D(4) dopamine receptor (cho-k1), “Not Active”; at Histamine H2 receptor (read-out: IC50), 2.05 µM. Further, the IC50 entry against Vasopressin V1a receptor and on Cytochrome P450 2E1 was “Not Active” each time. For the same compound, the Ki at Histamine H2 receptor (read-out: Ki) was 2.02 µM; at Cytochrome P450 2E1, “Not Active”.
For the compound `O=C(CCCN1CCC(O)(c2ccc(Cl)cc2)CC1)c1ccc(F)cc1` [HALOPERIDOL], the IC50 result (on Cannabinoid receptor 1; in data set [1]; against Substance-K receptor (cho); in [2]; in data set [3]; against Adenosine receptor A3) was “Not Active” in each case. Moreover, the IC50 entry (in data set [4]; on Nitric oxide synthase 1; in data set [5]; in data set [6]; at Vasopressin V1a receptor; against Cytochrome P450 2E1) was “Not Active” each time. Further, on Cytochrome P450 2E1, the Ki entry is “Not Active”.
As for `CN1CCN2c3ccccc3Cc3ccccc3C2C1` (stereo not given) [MIANSERIN], the IC50 result (against Cannabinoid receptor 1; in data set [1]; against Substance-K receptor (cho); in data set [2]; in [3]; at Adenosine receptor A3) was “Not Active” throughout. Moreover, the IC50 result (in data set [4]; against Nitric oxide synthase 1; in data set [5]; in data set [6]; on D(4) dopamine receptor (cho-k1); at Vasopressin V1a receptor) was “Not Active” throughout. Besides, the IC50 entry at Cytochrome P450 2E1 is “Not Active”. The Ki entry at Cytochrome P450 2E1 is “Not Active”.
For `CC(C)(O)c1ccccc1CC[C@@H](SCC1(CC(=O)O)CC1)c1cccc(/C=C/c2ccc3ccc(Cl)cc3n2)c1` [MONTELUKAST], the IC50 result is “Not Active” against Cannabinoid receptor 1; 3.82 µM at Substance-K receptor (read-out: IC50); “Not Active” in data set [2]; “Not Active” in data set [3]; “Not Active” in data set [4]; “Not Active” against Nitric oxide synthase 1. For the same compound, the IC50 result (in data set [5]; in data set [6]; at D(4) dopamine receptor (cho-k1); against Histamine H2 receptor (cho-k1); against Vasopressin V1a receptor; on Cytochrome P450 2E1) was “Not Active” in each case. Further, the results for the Ki on Substance-K receptor and at Cytochrome P450 2E1 were 1.27 µM and “Not Active”, respectively.
As to `COC(=O)C1=C(C)NC(C)=C(C(=O)OC)C1c1ccccc1[N+](=O)[O-]` [NIFEDIPINE], the IC50 entry at Cannabinoid receptor 1 is “Not Active”; in data set [1], “Not Active”; against Substance-K receptor (cho) it was “Not Active”; in data set [2] it was “Not Active”; in data set [3], “Not Active”; in data set [7] (read-out: IC50), 23.8 µM. For the same compound, the IC50 entry (in data set [4]; on Nitric oxide synthase 1; in [8]; in data set [5]; in data set [6]; in data set [9]) was “Not Active” in each case. Also, the IC50 result (at D(4) dopamine receptor (cho-k1); in data set [10]; on Histamine H2 receptor (cho-k1); on Vasopressin V1a receptor) was “Not Active” throughout. In addition, the Ki was 8.15 µM in data set [7] (read-out: Ki), “Not Active” in data set [8], “Not Active” in data set [9] and “Not Active” in [10].
Turning to `CSc1ccc2c(c1)N(CCC1CCCCN1C)c1ccccc1S2` (stereo not given) [THIORIDAZINE], the IC50 entry (on Cannabinoid receptor 1; in data set [1]; on Substance-K receptor (cho); in data set [2]; in data set [3]; at Adenosine receptor A3) was “Not Active” throughout. The IC50 entry in [4] was “Not Active”; against Nitric oxide synthase 1 it was “Not Active”; in data set [5], “Not Active”; in [6], “Not Active”; on D(4) dopamine receptor (read-out: IC50) it was 1.47 µM; on Vasopressin V1a receptor, “Not Active”. Also, the IC50 entry at Cytochrome P450 2E1 is “Not Active”. Moreover, the Ki at D(4) dopamine receptor (read-out: Ki) is 0.515 µM; on Cytochrome P450 2E1, “Not Active”.
